Reference: patent US20200323897A1, “METHODS FOR DISTRIBUTING AGENTS TO AREAS OF BRAIN” (Medtronic, Inc., priority 2010, published 2020)

How the values were obtained:
[1] = Intrathecal (L2) infusion at low flow rates, distribution tracked by MRI; type: in vivo, rhesus monkey
Procedure: (§1) CADD ambulatory infusion pumps were used to deliver gadolinium (Gd) labeled diethylene triamine pentaacetic acid (DTPA) or Gd-labeled albumin to rhesus monkeys, either intrathecally or intracerebroventricularly. Distribution of the Gd-labeled agents was tracked in-life via magnetic resonance imaging (MRI).
(§2) For the Gd-DTPA studies, various concentrations of the Gd-DTPA were administered. The Gd-DTPA was administered intrathecally at L2 or intracerebroventricularly via a lateral ventricle at a variety of flow rates. Within a given monkey various flow rates were tested, followed by a washout period with phosphate buffered saline (PBS). An example study design that was used is presented below in Table 2:
While not detectable at lower concentrations, it is believed that the distribution of the lower concentration agent was similar to that observed at the 70 mg/ml concentration at similar flow rates. […] FIG. 6A is an MRI image of the same monkey prior to infusion of Gd-DTPA.
For the Gd-albumin studies, various concentrations of the Gd-albumin were administered intrathecally at L2 at various flow rates. FIGS. 9A-E are MRI images of rhesus monkeys receiving intrathecal Gd-albumin.

[2] = Intracerebroventricular (lateral ventricle) infusion at low flow rates, distribution tracked by MRI; type: in vivo, rhesus monkey; conditions: ICV
Procedure: as §1, §2
Referring now to FIGS. 8A-F, MM images of a rhesus monkey receiving various concentrations of Gd-DPTA intracerebroventricularly at various flow rates are shown. FIG. 8A is an MRI image of a monkey receiving PBS prior to infusion of the Gd-DPTA. FIG. 8B is an MM image of a monkey receiving 486 mg/ml at 0.048 ml/day. FIG. 8C is an MRI image of a monkey receiving 280 mg/ml at 0.1 ml/day. FIG. 8D is an MRI image of a monkey receiving 70 mg/ml at 0.4 ml/day. FIG. 8E is an MRI image of a monkey receiving 35 mg/ml at 0.8 ml/day. FIG. 8F is an MM image of a monkey receiving 22 mg/ml at 1.2 ml/day. […] Accordingly, broad distribution appears to be achievable at low flow rates, regardless of the CSF site of administration.
Referring now to FIGS. 11A-F, MRI images of a rhesus monkey receiving various concentrations of Gd-albumin intracerebroventricularly at various flow rates are shown. FIG. 11A is an MM image of a monkey receiving PBS prior to infusion of the Gd-albumin. FIG. 11B is an MM image of a monkey receiving 100 mg/ml at 0.1 ml/day at one day of infusion. FIG. 11C is an MRI image of a monkey receiving 100 mg/ml at 0.4 ml/day at one day of infusion. FIG. 11D is an MRI image of a monkey receiving 100 mg/ml at 0.4 ml/day at three days of infusion. FIG. 11E is an MRI image of a monkey receiving 100 mg/ml at 0.8 ml/day at one day of infusion. FIG. 11F is an MRI image of a monkey receiving 64 mg/ml at 1.2 ml/day at one day of infusion.

[3] = Infusion into the CSF at low flow rates (IT or ICV), overall statements on distribution; type: in vivo, rhesus monkey
Excerpt: as §1

[4] = humans, intrathecal, constant rate of 0.5 ml/day; cited from earlier work

Row | Structure (SMILES) | uptake by brain tissue (FIG. 7B) ([1]; IT L2, 70 mg/ml, 2.4 ml/day) | distribution around the spinal cord (FIG. 7D) ([1]; IT L2, 70 mg/ml, 2.4 ml/day, steady state) | distribution in the CSF (FIG. 6) ([1]; IT L2, all flow rates of about 0.4 ml/day or greater) | distribution in the CSF ([1]; IT, 0.1 mL/day) | distribution in the CSF ([1]; IT, 0.4 mL/day, 70 mg/ml) | detectability by MRI ([1]; IT, 0.4 mL/day, lower concentrations (17.5 mg/ml, 5.8 mg/ml, 2.9 mg/ml)) | MRI signal intensity ([1]; IT, 2.4 ml/day (100 microliters per hour)) | steady state distribution in the CSF ([2]; 0.048 mL/day) | steady state distribution in the CSF ([2]; 0.1 mL/day) | distribution within the CSF ([2]; 0.1 mL/day for a period of 6 hours) | distribution in the CSF (FIG. 8) ([2]; flow rates of about 0.05 ml/day or greater, 22-486 mg/ml) | distribution following infusion into the CSF [3] | supraspinal side effects [4]
1 | O=C([O-])CN(CCN(CC(=O)[O-])CC(=O)O)CCN(CC(=O)[O-])CC(=O)O.[Gd+3] [Gd-DTPA, gadolinium (Gd) labeled diethylene triamine pentaacetic acid (DTPA)] | appears to be taken up by the parenchymal tissue of the brain | distributed in a circumferential manner around the intrathecal space | broad distribution was observed | confined the molecule in the IT space | broadly distributed throughout the CSF | not appreciably detectable by MRI | signal was most intense | evident in the CSF compartments in and around the brain, but not the spinal cord | complete CSF coverage | distributed broadly throughout the CSF in and around the brain and spinal cord | broadly distributed in the CSF, including in the intrathecal space | broadly distributed | 
2 | NCC(CC(=O)O)c1ccc(Cl)cc1 (centres unmarked) [baclofen] |  |  |  |  |  |  |  |  |  |  |  |  | do not appear to suffer from any supraspinal side effects
3 | CN1CC[C@]23c4c5ccc(O)c4O[C@H]2[C@@H](O)C=C[C@H]3[C@H]1C5 [morphine] |  |  |  |  |  |  |  |  |  |  |  |  | do not appear to suffer from any supraspinal side effects
